Measurements from ChEMBL document CHEMBL1201862, “PubChem BioAssay data set” (2004).
Blank lines part the entries; values can stand above or below the compound they belong to. Calls of active or inactive are those of the source.

Key:
[1] = molecular target: T1, Corticotropin-releasing factor receptor 2/Corticotropin-releasing factor-binding protein (Homo sapiens, UniProt P24387+Q13324); experiment: activators of CRF receptor 2 with binding protein – uHTS hits, confirmation (AID 602473); assay type: functional; conditions: read-out: EC50_Mean
T1 sequence (Q13324 whole entry): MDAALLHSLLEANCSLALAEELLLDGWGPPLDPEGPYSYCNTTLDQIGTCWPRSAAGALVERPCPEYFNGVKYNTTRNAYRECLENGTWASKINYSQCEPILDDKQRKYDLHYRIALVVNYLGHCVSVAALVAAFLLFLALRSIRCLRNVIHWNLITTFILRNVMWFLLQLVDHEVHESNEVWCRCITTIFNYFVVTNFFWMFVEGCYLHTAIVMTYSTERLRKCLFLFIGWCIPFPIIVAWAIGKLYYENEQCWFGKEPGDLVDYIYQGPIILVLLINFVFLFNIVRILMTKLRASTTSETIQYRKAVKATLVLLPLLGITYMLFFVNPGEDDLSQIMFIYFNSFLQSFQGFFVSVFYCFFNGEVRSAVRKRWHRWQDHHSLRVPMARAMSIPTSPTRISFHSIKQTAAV
T1 sequence (P24387 whole entry): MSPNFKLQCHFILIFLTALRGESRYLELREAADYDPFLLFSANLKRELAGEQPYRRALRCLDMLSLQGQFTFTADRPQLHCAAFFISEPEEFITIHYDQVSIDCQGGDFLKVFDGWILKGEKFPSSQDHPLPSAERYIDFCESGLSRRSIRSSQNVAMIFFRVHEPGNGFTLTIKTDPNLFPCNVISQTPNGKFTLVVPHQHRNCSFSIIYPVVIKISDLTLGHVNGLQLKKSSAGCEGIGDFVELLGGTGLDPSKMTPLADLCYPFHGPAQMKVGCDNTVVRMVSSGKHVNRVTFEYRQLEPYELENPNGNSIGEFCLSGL

[2] = molecular target: T2, Short transient receptor potential channel 4 (Mus musculus, UniProt Q9QUQ5); experiment: mouse TRPC4 channel activators, dose response, cell-based, HEK293 TRPC4/mu-opioid, Fluo-4 calcium (AID 434937); assay type: functional
T2 sequence (Q9QUQ5 whole entry): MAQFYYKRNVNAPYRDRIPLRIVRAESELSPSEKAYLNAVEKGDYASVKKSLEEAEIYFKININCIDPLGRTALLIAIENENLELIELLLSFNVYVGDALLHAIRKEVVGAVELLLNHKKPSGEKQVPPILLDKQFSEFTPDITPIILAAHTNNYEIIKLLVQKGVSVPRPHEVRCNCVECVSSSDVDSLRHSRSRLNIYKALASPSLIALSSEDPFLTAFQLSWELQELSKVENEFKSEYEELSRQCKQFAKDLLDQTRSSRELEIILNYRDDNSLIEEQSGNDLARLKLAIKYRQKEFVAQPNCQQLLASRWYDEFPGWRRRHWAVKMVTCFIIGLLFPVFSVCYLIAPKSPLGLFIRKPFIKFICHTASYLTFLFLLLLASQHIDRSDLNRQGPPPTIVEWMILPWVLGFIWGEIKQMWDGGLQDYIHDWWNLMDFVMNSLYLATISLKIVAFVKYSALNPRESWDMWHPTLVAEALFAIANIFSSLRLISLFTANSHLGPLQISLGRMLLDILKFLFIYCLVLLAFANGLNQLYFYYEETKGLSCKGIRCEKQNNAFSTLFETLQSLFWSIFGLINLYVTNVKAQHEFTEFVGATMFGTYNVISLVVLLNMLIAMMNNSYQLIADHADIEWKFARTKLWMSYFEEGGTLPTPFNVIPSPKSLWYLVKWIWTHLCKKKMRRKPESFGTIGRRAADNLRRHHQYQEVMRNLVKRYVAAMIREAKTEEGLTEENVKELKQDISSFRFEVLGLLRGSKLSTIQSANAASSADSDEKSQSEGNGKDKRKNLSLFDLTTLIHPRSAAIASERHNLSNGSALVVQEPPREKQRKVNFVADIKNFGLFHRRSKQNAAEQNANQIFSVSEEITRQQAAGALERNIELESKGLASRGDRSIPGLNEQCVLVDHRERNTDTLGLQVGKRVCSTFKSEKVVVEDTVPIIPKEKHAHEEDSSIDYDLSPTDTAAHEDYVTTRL

Mucolipin-3 = Mucolipin-3 (Homo sapiens, UniProt Q8TDD5); experiment: Dose response cell-based high-throughput screening assay for agonists of the transient receptor potential channel ML3 (TRPML3). [Related pubchem assays: 1526, 1424, 1448 ]; assay type: functional
Ion channel NompC = Ion channel NompC (Danio rerio, UniProt Q7T1G6); experiment: Fluorescence counterscreen assay for TRPML3 agonists: dose response cell-based high-throughput screening assay to identify agonists of the transient receptor potential channel N1 (TRPN1). [Related pubchem assays: 1526, 1424, 1448 ]; assay type: functional
[3] = molecular target: T3, High affinity choline transporter 1 (Homo sapiens, UniProt Q9GZV3); experiment: CHT inhibitors, dose response, cell-based, 5-point CRC, membrane potential dye (AID 504840); assay type: functional
T3 sequence (Q9GZV3 whole entry): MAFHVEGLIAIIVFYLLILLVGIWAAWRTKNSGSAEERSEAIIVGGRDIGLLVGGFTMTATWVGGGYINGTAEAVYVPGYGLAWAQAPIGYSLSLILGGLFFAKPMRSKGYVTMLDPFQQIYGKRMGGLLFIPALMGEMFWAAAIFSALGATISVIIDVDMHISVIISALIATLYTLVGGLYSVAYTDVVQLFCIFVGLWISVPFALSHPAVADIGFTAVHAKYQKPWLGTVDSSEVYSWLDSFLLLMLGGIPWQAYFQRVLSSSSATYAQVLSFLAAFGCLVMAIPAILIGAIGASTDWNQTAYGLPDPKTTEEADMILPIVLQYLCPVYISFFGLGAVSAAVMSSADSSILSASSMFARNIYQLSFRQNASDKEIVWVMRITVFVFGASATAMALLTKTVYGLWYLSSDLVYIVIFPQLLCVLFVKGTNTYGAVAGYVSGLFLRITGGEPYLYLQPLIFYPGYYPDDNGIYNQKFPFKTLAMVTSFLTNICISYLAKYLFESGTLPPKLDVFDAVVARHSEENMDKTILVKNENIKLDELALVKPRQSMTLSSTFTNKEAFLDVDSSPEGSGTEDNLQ

[4] = Luminescence Cell-Based Dose Confirmation HTS to Identify Inhibitors of Polyadenylation.; assay type: functional
[5] = molecular target: Sphingosine 1-phosphate receptor 2 (Homo sapiens, UniProt O95136); experiment: Dose Response Cell Based Assay for Agonists of the S1P2 Receptor of Purchased Analogues. [Related pubchem assays: 729, 843, 854, 736 ]; assay type: functional
Leucine aminopeptidase = molecular target: T4, Leucine aminopeptidase (Plasmodium falciparum 3D7, UniProt Q8IL11); experiment: P. falciparum M17LAP inhibitors, primary screen, biochemical, fluorogenic H-Leu-NHMec substrate, 1536-well (AID 1619); assay type: functional
T4 sequence (Q8IL11 whole entry): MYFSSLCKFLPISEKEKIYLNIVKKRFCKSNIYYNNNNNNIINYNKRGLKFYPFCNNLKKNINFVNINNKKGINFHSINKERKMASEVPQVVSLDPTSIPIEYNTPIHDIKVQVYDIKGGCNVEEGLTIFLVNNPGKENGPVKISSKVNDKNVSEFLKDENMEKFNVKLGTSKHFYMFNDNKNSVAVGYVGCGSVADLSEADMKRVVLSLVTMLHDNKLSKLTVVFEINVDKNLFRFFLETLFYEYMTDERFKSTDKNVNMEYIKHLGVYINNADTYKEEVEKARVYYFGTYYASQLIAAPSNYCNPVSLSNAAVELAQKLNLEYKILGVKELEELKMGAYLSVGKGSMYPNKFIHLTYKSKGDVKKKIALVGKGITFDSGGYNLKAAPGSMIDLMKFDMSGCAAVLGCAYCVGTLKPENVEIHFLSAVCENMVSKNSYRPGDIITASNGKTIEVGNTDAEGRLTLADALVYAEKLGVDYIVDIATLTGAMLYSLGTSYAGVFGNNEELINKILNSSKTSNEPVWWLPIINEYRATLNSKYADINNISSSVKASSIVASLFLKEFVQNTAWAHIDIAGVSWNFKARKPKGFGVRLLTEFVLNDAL

Aspartyl aminopeptidase = Aspartyl aminopeptidase (Plasmodium falciparum 3D7, UniProt Q8I2J3); experiment: Counterscreen for inhibitors of M1 and M17 aminopeptidases: QFRET-based biochemical high throughput dose response assay for inhibitors of the Plasmodium falciparum M18 Aspartyl Aminopeptidase (PFM18AAP). [Related PubChem assays: 1619 (Screening assay (M17LAP inhibitors).), 1445 (Screening assay (M1AAP inhibitors).)]
Procathepsin L = Procathepsin L (Homo sapiens, UniProt P07711); experiment: cathepsin L inhibitors, dose response, counter-screen for M1/M17 aminopeptidase inhibitor project, biochemical, QFRET, 1536-well (AID 2214)
Procathepsin L, sequence (P07711 whole entry): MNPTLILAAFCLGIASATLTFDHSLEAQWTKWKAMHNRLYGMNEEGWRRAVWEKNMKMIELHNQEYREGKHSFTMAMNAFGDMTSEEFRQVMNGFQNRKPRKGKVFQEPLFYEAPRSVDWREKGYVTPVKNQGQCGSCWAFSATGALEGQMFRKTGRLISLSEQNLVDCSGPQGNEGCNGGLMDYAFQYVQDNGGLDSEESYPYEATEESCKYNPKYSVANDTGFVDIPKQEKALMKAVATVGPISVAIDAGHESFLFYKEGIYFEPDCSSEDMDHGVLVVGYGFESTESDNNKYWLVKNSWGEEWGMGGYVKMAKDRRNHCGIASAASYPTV

Sphingosine 1-phosphate receptor 2, sequence (O95136 whole entry): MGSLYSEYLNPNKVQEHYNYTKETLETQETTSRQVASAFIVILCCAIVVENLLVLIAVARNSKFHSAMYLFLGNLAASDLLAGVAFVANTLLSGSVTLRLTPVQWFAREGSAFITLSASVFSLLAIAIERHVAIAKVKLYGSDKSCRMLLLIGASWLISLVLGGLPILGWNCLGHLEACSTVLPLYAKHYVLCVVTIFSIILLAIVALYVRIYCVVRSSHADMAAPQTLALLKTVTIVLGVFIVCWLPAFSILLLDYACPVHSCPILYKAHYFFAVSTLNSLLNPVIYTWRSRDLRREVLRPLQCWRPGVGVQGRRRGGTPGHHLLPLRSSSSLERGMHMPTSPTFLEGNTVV
Aspartyl aminopeptidase, sequence (Q8I2J3 whole entry): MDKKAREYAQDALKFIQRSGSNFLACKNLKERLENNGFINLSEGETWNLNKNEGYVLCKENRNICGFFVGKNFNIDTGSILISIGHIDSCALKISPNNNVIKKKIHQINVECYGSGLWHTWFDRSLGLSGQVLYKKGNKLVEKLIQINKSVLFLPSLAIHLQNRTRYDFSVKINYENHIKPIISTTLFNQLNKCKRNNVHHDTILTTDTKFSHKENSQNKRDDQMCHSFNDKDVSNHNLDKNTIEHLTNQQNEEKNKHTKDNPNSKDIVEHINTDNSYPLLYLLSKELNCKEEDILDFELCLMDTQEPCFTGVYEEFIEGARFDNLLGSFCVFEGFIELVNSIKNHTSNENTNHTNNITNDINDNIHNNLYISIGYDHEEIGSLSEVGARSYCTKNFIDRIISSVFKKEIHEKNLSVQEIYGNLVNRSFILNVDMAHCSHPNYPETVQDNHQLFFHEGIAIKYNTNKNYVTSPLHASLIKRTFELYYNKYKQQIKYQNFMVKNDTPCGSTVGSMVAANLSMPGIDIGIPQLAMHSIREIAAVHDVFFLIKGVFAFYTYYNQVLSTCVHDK
Ion channel NompC, sequence (Q7T1G6 whole entry): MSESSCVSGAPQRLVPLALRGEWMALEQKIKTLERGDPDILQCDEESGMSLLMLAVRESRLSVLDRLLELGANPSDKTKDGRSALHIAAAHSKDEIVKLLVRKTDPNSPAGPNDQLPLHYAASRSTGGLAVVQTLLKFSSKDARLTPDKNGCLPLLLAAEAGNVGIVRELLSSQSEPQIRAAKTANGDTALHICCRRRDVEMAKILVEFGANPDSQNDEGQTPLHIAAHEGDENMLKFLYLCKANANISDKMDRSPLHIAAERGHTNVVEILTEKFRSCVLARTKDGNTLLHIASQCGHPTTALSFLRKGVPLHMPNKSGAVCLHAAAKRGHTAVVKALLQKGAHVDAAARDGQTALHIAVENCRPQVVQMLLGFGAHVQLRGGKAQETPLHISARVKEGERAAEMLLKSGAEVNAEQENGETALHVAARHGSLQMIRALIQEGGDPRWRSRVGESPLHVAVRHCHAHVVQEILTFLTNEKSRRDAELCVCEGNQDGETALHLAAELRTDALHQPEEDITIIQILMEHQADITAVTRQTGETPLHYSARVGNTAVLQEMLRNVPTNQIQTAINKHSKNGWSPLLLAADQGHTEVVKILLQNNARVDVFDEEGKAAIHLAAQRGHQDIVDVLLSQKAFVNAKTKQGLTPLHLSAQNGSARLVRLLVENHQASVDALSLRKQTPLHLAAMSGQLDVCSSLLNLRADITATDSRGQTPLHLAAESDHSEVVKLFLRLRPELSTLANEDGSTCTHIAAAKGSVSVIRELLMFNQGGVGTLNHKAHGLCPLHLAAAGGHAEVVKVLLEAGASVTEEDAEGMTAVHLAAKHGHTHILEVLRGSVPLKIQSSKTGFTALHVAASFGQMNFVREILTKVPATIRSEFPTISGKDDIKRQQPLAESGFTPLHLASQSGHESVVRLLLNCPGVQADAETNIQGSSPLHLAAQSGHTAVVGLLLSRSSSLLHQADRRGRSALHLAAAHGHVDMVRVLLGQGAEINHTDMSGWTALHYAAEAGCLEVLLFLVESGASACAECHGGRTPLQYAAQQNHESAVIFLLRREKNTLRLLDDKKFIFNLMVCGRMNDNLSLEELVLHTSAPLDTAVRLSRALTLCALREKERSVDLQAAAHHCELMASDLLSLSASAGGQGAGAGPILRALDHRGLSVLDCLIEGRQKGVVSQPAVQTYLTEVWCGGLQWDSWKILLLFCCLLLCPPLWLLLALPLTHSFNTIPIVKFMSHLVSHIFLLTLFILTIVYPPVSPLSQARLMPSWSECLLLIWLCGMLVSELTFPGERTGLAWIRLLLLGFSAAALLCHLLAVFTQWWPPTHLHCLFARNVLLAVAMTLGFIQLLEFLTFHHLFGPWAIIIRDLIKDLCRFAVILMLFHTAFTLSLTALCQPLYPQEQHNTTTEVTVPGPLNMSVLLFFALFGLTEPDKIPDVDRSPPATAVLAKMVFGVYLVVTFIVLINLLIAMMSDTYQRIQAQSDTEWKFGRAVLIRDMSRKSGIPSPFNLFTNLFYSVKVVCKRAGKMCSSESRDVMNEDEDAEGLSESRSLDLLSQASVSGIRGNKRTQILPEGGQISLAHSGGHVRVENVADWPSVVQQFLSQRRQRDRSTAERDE
Mucolipin-3, sequence (Q8TDD5 whole entry): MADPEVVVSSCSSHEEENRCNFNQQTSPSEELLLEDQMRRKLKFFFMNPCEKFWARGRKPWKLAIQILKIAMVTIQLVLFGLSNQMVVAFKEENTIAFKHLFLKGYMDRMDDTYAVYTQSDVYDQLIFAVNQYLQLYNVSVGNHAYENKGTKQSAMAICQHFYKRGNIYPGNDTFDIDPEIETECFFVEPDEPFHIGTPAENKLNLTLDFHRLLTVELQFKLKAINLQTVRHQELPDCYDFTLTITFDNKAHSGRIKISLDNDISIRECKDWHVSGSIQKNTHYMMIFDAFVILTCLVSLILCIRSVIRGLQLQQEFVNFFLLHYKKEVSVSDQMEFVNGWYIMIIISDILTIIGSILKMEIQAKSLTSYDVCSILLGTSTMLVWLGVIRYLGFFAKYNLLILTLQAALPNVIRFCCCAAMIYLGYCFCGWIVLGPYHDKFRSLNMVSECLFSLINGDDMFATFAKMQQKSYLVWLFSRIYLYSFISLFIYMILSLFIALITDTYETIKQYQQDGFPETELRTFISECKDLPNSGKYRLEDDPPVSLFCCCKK

EC50 [1]: 12.2 µM (active) | EC50 [2]: 5.31 µM (active) | EC50 (Mucolipin-3): 5.99 µM (active) | EC50 (Ion channel NompC): 5.44 µM (active) | IC50 [3]: 28.8 µM (active)
SMILES: O=C(NC(=S)NNC(=O)c1cccs1)c1ccc(Br)o1

SMILES: CS(=O)(=O)N1CCN(CC2CC3C=CC2C3)CC1 (stereo not given)
EC50 [4]: > 120 µM (not active)

EC50 [5]: > 30 µM (not active)
SMILES: Cc1cc(C(=O)CN2C(=O)CCC2=O)c(C)n1Cc1ccc2c(c1)OCO2

IC50 (Leucine aminopeptidase): < 1 µM (active) | IC50 (Aspartyl aminopeptidase): > 73.5 µM (not active) | IC50 (Procathepsin L): > 59.6 µM (not active)
SMILES: O=C(O)Cc1ccc(NC(=O)Nc2ccc(Br)cc2)cc1
